In patent publication US11679104B2, “Compositions and methods of enhancing the homing and/or engraftment of hematopoietic cells in the central nervous system” (Duke University, priority 2017, dated 2023):
“Also recorded” adds a separate entry of the source.

Test system: microglia
Experiment: BMT with UBC-GFP bone marrow followed by PLX5622 chow: beMφ engraftment into the brain
Format: in vivo, mice
Conditions: for GFP+ beMφ engraftment in the brain: 1 week recovery, 6 weeks standard chow
From the text: Mice were γ-irradiated with a lethal dose of 1000 rad. Four hours post irradiation, mice were intravenously injected with 5×10^6 bone marrow cells. Mice were given water supplemented with trimethoprim-sulfamethoxazole for two weeks and monitored daily for the first 4 days. A lead shield was placed over the head during irradiation in some experiments, as indicated.
To determine transcriptional and morphological changes of microglia and beMφ to an insult, mice were given a peripheral LPS challenge. Mice were first irradiated and given BMT with UBC-GFP bone marrow. To target microglia, head shielding was applied during irradiation in some mice. After 1 week of recovery, mice were treated with PLX 5622 for 2 weeks to deplete the brain macrophage niche then placed on standard chow for 6 weeks. Mice were injected with 50 μg LPS or saline (i.p.). 6 hours later, brains were removed and macrophages sorted by MACS on CD11B beads as described above.
We utilized the Csf1r inhibitor PLX5622 in chow, to eliminate irradiation-damaged, yet still viable, microglia. Mice were given BMT with UBC-GFP bone marrow with or without head covering during irradiation, followed by 1 week of recovery, 2 weeks of chow containing PLX5622, and finally 6 weeks of recovery on standard chow.
Our third model (see Example 2) was designed to take advantage of the synergistic effect on engraftment we had observed with the combination of CNS irradiation and Csf1r deletion in microglia. Instead of Csf1r deletion using our genetic model, we utilized the Csf1r inhibitor PLX5622 in chow, to eliminate the irradiation-damaged, yet still viable, microglia. Mice were given BMT with UBC-GFP bone marrow with or without head covering during irradiation, followed by 1 week of recovery, 2 weeks of chow containing PLX5622, and finally 6 weeks of recovery on standard chow. […] Due to the robust level of engraftment in this model, we sorted GFP+ beMφ from whole body irradiated mice and GFP microglia from head covered mice for RNA-seq. Mice were injected i.p. with saline or LPS 6 hours prior to cell collection. Microglia and beMφ were FACS sorted from mice with or without head-covering, respectively, and then RNA-seq followed by differential expression analysis was performed (n=3 microglia samples, pooled from 3 total mice for each sample, and n=3 beMφ samples, pooled from 3 total mice for each sample; performed once).

## COc1ncc(F)cc1CNc1ccc(Cc2c[nH]c3ncc(C)cc23)c(F)n1 [PLX5622]
BMT with head covering during irradiation, 2 weeks PLX5622 chow
  GFP+ beMφ engraftment in the brain: minimal GFP+ beMφ engraftment
BMT with head covering during irradiation, 2 weeks PLX5622 chow, then 6 weeks standard chow
  repopulation of the CNS with endogenous microglia: effectively repopulated the CNS with endogenous microglia
BMT with whole body irradiation, 2 weeks PLX5622 chow
  GFP+ beMφ engraftment in the brain: robust engraftment of GFP+ beMφ; also recorded: robust engraftment of GFP+ beMϕ
System of BMT and PLX5622 treatment for beMφ engraftment
  repopulation of microglia by beMφ: substantial repopulation of microglia by beMϕ
Used as part of a protocol that clears the microglial niche
  potentiation of engraftment of hematopoietic-derived macrophages into the brains of mice: can potentiate engraftment
